Reference: patent US20210368825A1, “FEED ADDITIVE FOR DAIRY CATTLE COMPRISING N-ACETYL-L-TRYPTOPHAN AS ACTIVE INGREDIENT” (CJ CHEILJEDANG CORPORATION, priority 2018, published 2021)
“Also recorded” adds a separate entry of the source.

Key:
[1] = tested on: calves born from dairy cattle; test: Change in hematological properties of calves born from dairy cattle according to NALT feeding; assay type: in vivo, Holstein Friesian cows (calves)
Source text: (§1) From among Holstein Friesian cows in the late stage of gestation corresponding to 60 days before calving, 8 cows were selected in consideration of calving time (expected calving date±15 days), the number of calving (calving number), and the like, and 4 cows were assigned to each of a control (untreated) and a treated group.
(§2) In the present disclosure, as a basal diet fed during a dry period and a milking period, total mixed ration (TMR), roughage, and concentrates were provided in accordance with NRC (2001) nutrition requirements for dry cows. In the case of the treated group, evaluation was performed by supplementing N-acetyl-L-tryptophan (NALT) to the basal diet. Newborn calves were fed with colostrum for 3 days and then fed with milk obtained during a milking process for 8 weeks.
(§3) Evaluation of feed feeding before calving by feeding N-acetyl-L-tryptophan was performed for 60±8 days (error caused by difference in expected calving dates). The control was fed with the basal diet, and the treated group was fed with the basal diet supplemented with 15 g of NALT.
(§4) Blood was collected from dairy cattle and calves during 6 weeks of the dry period and immediately after calving via the jugular vein before feeding a morning feed every 2 weeks for 8 weeks. The collected blood was aliquoted into a serum tube (BD Vacutainer, Plymouth, UK) and a heparin tube (Becton-Dickinson, Belliver Industrial Estate, Plymouth, PL6 7BP, UK) and centrifuged (3,500 rpm, 15 min, 20° C.) to separate plasma.
Blood samples for analysis of changes in hematological properties such as white blood cells (WBC), lymphocytes, monocytes, granulocytes, mean corpuscular volume, mean corpuscular hemoglobin, and platelets were aliquoted into an ethylenediaminetetraacetic acid (EDTA)-treated vacutainer (Becton-Dickinson, Franklin Lakes, N.J., USA) and analyzed using a VetScan HM2 Hematology System (ABAXIS, Calif., USA).

[2] = tested on: dairy cattle after calving; design: species or system Holstein Friesian cows; conditions: in vivo
Source text: as §1, §2, §3, §4
(§5) Samples for analysis of metabolic changes such as albumin, glutamic-oxalacetic transaminase (GOT), blood urea nitrogen (BUN), triglycerides (TG), cholesterol (CHO), glucose (GLU), and non-esterified fatty acid (NEFA) were aliquoted into a 1.5 mL tube (Eppendorf AG, Hamburg, Germany) in an amount of 500 μL each and stored in a deep freezer at −80° C.

[3] = tested on: dairy cattle in dry period; design: species or system Holstein Friesian cows; conditions: in vivo
Source text: as §1, §2, §3, §4, §5

[4] = tested on: calves born from dairy cattle; test: Metabolic change of calves born from dairy cattle according to NALT feeding; assay type: in vivo, Holstein Friesian cows (calves)
Source text: as §1, §2, §3, §4, §5

[5] = calves born from NALT-treated dairy cattle

CC(=O)N[C@@H](Cc1c[nH]c2ccccc12)C(=O)O [NALT, N-acetyl-L-tryptophan]
initial index of mean corpuscular hemoglobin (MCH) of newborn calves compared with control [1, 5]: statistically significant difference | initial index of mean corpuscular volume (MCV) of newborn calves compared with control [1, 5]: statistically significant difference | monocyte index of newborn calves compared with control [1, 5]: significant differences | Monocyte ([1]; calves, 0 wk, reference 0-0.84): 0.32 K/uL | Granulocyte ([1]; calves, 0 wk, reference 0.6-6.7): 9.68 K/uL | Lymphocyte ([1]; calves, 0 wk, reference 2.5-7.5): 3.72 K/uL | WBC ([1]; calves, 0 wk, reference 4-12): 13.72 K/uL | MCH ([1]; calves, 0 wk, reference 11-17, P 0.056): 12.95 pg | MCV ([1]; calves, 0 wk, reference 40-60, P 0.027): 39.00 fL | Platelet ([1]; calves, 0 wk, reference 100-800): 512.75 K/ul | Monocyte, total AVG ([1]; calves, average 0 to 8 weeks, reference 0-0.84, P 0.031): 0.53 K/uL | Granulocyte, total AVG ([1]; calves, average 0 to 8 weeks, reference 0.6-6.7): 4.69 K/uL | Lymphocyte, total AVG ([1]; calves, average 0 to 8 weeks, reference 2.5-7.5): 6.93 K/uL | WBC, total AVG ([1]; calves, average 0 to 8 weeks, reference 4-12): 12.14 K/uL | MCH, total AVG ([1]; calves, average 0 to 8 weeks, reference 11-17): 11.20 pg | MCV, total AVG ([1]; calves, average 0 to 8 weeks, reference 40-60): 31.80 fL | Platelet, total AVG ([1]; calves, average 0 to 8 weeks, reference 100-800): 584.35 K/ul | immune response of the calves born from dairy cattle ([1]; conclusion drawn from hematology of calves): positive effects | Albumin [2]: 3.73 g/dL | Albumin, total AVG [2]: 4.01 g/dL | BUN [2]: 10.75 mg/dL | BUN, total AVG [2]: 16.75 mg/dL | CHO [2]: 101.25 mg/dL | CHO, total AVG [2]: 188.45 mg/dL | GLU [2]: 83.75 mg/dL | GLU, total AVG [2]: 68.35 mg/dL | GOT [2]: 87.00 U/L | GOT, total AVG [2]: 89.65 U/L | TG [2]: 8.00 mg/dL | TG, total AVG [2]: 9.45 mg/dL | effect on metabolic changes of dairy cattle compared with control [2]: did not significantly affect | Albumin [3]: 3.93 g/dL | Albumin, total AVG [3]: 3.74 g/dL | BUN [3]: 12.25 mg/dL | BUN, total AVG [3]: 9.88 mg/dL | CHO [3]: 194.00 mg/dL | CHO, total AVG [3]: 143.08 mg/dL | GLU [3]: 50.00 mg/dL | GLU, total AVG [3]: 50.52 mg/dL | GOT [3]: 82.50 U/L | GOT, total AVG [3]: 80.92 U/L | TG [3]: 16.25 mg/dL | TG, total AVG [3]: 19.88 mg/dL | effect on metabolic changes of dairy cattle compared with control [3]: did not significantly affect | glucose (Glu) index of newborn calves compared with control ([4]; calves of the NALT-treated group, 8 weeks after birth): statistically significant difference; also recorded: decreasing a blood glucose level | Albumin ([4]; calves, 0 wk): 2.50 g/dL | BUN ([4]; calves, 0 wk): 10.00 mg/dL | CHO ([4]; calves, 0 wk): 33.00 mg/dL | GLU ([4]; calves, 0 wk): 54.75 mg/dL | GOT ([4]; calves, 0 wk): 47.25 U/L | TG ([4]; calves, 0 wk): 14.50 mg/dL | Albumin, total AVG ([4]; calves, average 0 to 8 weeks): 3.36 g/dL | BUN, total AVG ([4]; calves, average 0 to 8 weeks): 11.30 mg/dL | CHO, total AVG ([4]; calves, average 0 to 8 weeks): 109.30 mg/dL | GOT, total AVG ([4]; calves, average 0 to 8 weeks): 62.55 U/L | TG, total AVG ([4]; calves, average 0 to 8 weeks): 34.40 mg/dL | GLU, total AVG ([4]; calves, average 0 to 8 weeks, P 0.015): 78.95 mg/dL
